Columns and labels:
[1] = target: T1, recombinant human c-Met/HGF receptor (Homo sapiens, UniProt P08581); assay: In vitro receptor tyrosine kinase assay (DELFIA), c-Met/HGF receptor; assay type: biochemical; details: read-out: CMET IC50
T1 construct: His tag (pBlueBacHis2A vector); made in house; host or cells: Hi-5 cells (Trichoplusia ni), baculovirus
Procedure: Cell pellets were frozen at −80° C. until purification was performed.
(§1) The coated plates were washed and stored at 4° C. […] After incubation, the kinase reactions were quenched with EDTA and the plates were washed.

[2] = target: T2, VEGF receptor KDR (Homo sapiens, UniProt P35968); assay: In vitro receptor tyrosine kinase assay (DELFIA), VEGF receptor KDR; assay type: biochemical; details: read-out: VEGFR IC50
T2 construct: made in house; host or cells: Sf9 cells (Spodoptera frugiperda), baculovirus
T2 sequence (P35968 806-1356): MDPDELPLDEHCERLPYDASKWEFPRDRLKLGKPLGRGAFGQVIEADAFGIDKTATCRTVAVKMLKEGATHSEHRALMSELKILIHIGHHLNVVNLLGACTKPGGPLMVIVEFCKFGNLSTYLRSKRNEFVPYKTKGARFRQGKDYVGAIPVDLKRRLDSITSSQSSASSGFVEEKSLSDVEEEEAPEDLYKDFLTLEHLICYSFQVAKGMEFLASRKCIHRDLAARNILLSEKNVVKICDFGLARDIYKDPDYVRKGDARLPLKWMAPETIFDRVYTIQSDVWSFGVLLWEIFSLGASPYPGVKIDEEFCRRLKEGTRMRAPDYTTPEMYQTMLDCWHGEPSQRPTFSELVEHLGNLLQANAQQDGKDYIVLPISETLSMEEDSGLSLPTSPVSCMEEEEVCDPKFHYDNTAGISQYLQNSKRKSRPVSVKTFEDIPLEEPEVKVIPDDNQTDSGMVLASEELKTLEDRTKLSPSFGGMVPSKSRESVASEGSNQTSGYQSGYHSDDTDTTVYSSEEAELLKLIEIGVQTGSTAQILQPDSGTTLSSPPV
Procedure: In the case of VEGF receptor KDR a 1.6-kb cDNA corresponding to the catalytic domain of VEGFR2 or KDR (Genbank accession number AF035121 amino acid 806 to 1356) was cloned into the Pst I site of the pDEST20 Gateway vector (Invitrogen) for the production of a GST-tagged version of that enzyme.
The GST-VEGFR2806-1356 protein was expressed in […] (Spodoptera frugiperda) upon infection with recombinant baculovirus construct. […] Cell pellets were frozen at −80° C. until purification was performed.
The supernatant (cell extract) was used as starting material for purification of GST-VEGFR2806-1356.
The supernatant was loaded onto a GST-agarose column (Sigma) equilibrated with PBS pH 7.3. Following a four column volume (CV) wash with PBS pH 7.3+1% Triton X-100 and 4 CV wash with buffer B (50 mM Tris pH 8.0, 20% glycerol and 100 mM NaCl), bound proteins were step eluted with 5 CV of buffer B supplemented with 5 mM DTT and 15 mM glutathion. GST-VEGFR2806-1356 enriched fractions from this chromatography step were pooled based on U.V. trace i.e. fractions with high O.D.280. Final GST-VEGFR2806-1356 protein preparations concentrations were about 0.7 mg/ml with purity approximating 70%.
as §1

[3] = system: A549; assay: A549 wound healing inhibition (HGF dependent migration); assay type: cell-based; details: Homo sapiens, A549 cells, read-out: A549 WOUND HEALING INHIB IC50
Text: (§2) HGF has well known activity in terms of inducing scattering and migration (wound healing) (Wells et al., Cell Motil Cytoskeleton. 2005 November 62(3):180-94; Miura et al., Urology 2001 December 58(6):1064-9; Nishimura et al., Int J Urol. 1998 May 5(3):276-81; Wang et al., Mol Cancer Ther. 2003 November; 2(11):1085-92; and Christensen et al., Cancer Res. 2003 Nov. 1; 63(21):7345-55).

[4] = system: DU145; assay: DU145 scattering inhibition (HGF dependent scattering); assay type: cell-based; details: Homo sapiens, DU-145; HGF dependent scattering, DU145 cells; read-out: DU145 SCATTERING INHIB IC50
Text: as §2

T1 sequence (P08581 1078-1337): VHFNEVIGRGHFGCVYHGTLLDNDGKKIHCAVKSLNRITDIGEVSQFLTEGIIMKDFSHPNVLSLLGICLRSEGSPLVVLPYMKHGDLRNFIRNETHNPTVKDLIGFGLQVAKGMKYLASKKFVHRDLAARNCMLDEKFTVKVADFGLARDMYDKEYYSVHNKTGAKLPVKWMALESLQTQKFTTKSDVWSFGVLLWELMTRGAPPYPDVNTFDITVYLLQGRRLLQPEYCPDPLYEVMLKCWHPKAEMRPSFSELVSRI

SMILES | IC50 [1] | IC50 [2] | IC50 [3] | IC50 [4]
O=C(Nc1ccc(Oc2ccnc3cc(-c4cn(CCCN5CCCC5)cn4)sc23)c(F)c1)C1CCN(c2ccccc2)C1=O (centres unmarked) | < 50 nM | < 50 nM | < 1000 nM | < 1000 nM
COc1ccccc1NC(=O)CC(=O)Nc1ccc(Oc2ccnc3cc(-c4c[nH]cn4)sc23)c(F)c1 | 50 to 250 nM | 50 to 250 nM | < 1000 nM | < 1000 nM
CN(c1ccc(NC(=O)C2CCN(c3ccccc3)C2=O)cc1F)c1ccnc2cc(-c3cn(C)cn3)sc12 (centres unmarked) | 50 to 250 nM | > 500 nM | 1000 to 5000 nM | 1000 to 5000 nM
CC(C)n1cnc(-c2cc3nccc(Oc4ccc(NC(=O)CC(=O)Nc5nccs5)cc4F)c3s2)c1 | < 50 nM | < 50 nM | 1000 to 5000 nM | 1000 to 5000 nM
CN1CCN(CCN(C)Cc2ccc(-c3cc4nccc(Oc5ccc(NC(=O)C6(C(=O)Nc7ccc(F)cc7)CC6)cc5F)c4s3)cc2)CC1 | < 50 nM | < 50 nM | 1000 to 5000 nM | < 1000 nM
CN(C)CCn1cnc(-c2cc3nccc(Oc4ccc(NC(=O)C5(C(=O)Nc6ccccc6F)CC5)cc4F)c3s2)c1 | < 50 nM | < 50 nM | < 1000 nM | < 1000 nM
CCn1cnc(-c2cc3nccc(Oc4ccc(NC(=O)CC(Nc5ccc(F)cc5)C(F)(F)F)cc4F)c3s2)c1 (centres unmarked) | 250 to 500 nM | 50 to 250 nM | > 10000 nM | 1000 to 5000 nM
Cn1ccnc1-c1cc2nccc(Oc3ccc(NC(=O)CC(=O)NC4CCNCC4)cc3F)c2s1 | > 500 nM | > 500 nM | > 10000 nM | > 10000 nM
CN1CCN(Cc2ccc(-c3cc4nccc(Oc5ccc(NC(=O)C6(C(=O)Nc7ccccc7)CC6)cc5F)c4s3)cc2)CC1 | < 50 nM | < 50 nM | < 1000 nM | < 1000 nM
CN1CCN(CCN(C)Cc2ccc(-c3cc4nccc(Oc5ccc(NC(=O)N6CCN(c7ccccc7)C6=O)cc5F)c4s3)cc2)CC1 | < 50 nM | < 50 nM | > 10000 nM | 1000 to 5000 nM
Cn1cnc(-c2cc3nccc(Oc4ccc(NC(=O)C5CCN(c6ccccc6)C5=O)cc4F)c3s2)c1 (centres unmarked) | < 50 nM | < 50 nM | < 1000 nM | < 1000 nM
Cn1cncc1-c1cc2nccc(Oc3ccc(NC(=O)CC(=O)Nc4ccccc4O)cc3F)c2s1 | 50 to 250 nM | < 50 nM | > 10000 nM | 1000 to 5000 nM
CN1CCN(CCN(C)Cc2ccc(-c3cc4nccc(Oc5ccc(NC(=O)CC(=O)Nc6cccc(F)c6)cc5F)c4s3)cc2)CC1 | 50 to 250 nM | < 50 nM | 1000 to 5000 nM | 1000 to 5000 nM
CN(C)[C@@H]1CCN(C(=O)c2cc3nccc(Oc4ccc(NC(=O)CC(=O)Nc5ccccc5)cc4F)c3s2)C1 [drawing 294] | 50 to 250 nM | 50 to 250 nM | < 1000 nM | 1000 to 5000 nM
CCN(CC)CCn1cnc(-c2cc3nccc(Oc4ccc(NC(=O)CC(=O)N(C)c5ccccc5)cc4F)c3s2)c1 | 50 to 250 nM | < 50 nM | < 1000 nM | < 1000 nM
CCn1cnc(-c2cc3nccc(Oc4ccc(NC(=O)CC(=O)Nc5ccc(F)cc5)cc4F)c3s2)c1 | < 50 nM | < 50 nM | < 1000 nM | < 1000 nM
O=C(CC(=O)Nc1ccccc1F)Nc1ccc(Oc2ccnc3cc(C#CCN4CCOCC4)sc23)c(F)c1 | 50 to 250 nM | 250 to 500 nM | 1000 to 5000 nM | > 10000 nM
CN(C)CCn1cnc(-c2cc3nccc(Oc4ccc(NC(=O)C5(C(=O)Nc6ccccc6)CC5)cc4F)c3s2)c1 | < 50 nM | < 50 nM | < 1000 nM | < 1000 nM
CCn1cnc(-c2cc3nccc(Oc4ccc(NC(=S)N5CCN(c6ccccc6)C5=O)cc4F)c3s2)c1 | < 50 nM | < 50 nM | < 1000 nM | < 1000 nM
Cn1cnc(-c2cc3nccc(Nc4ccc(NC(=O)C5(C(=O)Nc6ccc(F)cc6)CC5)cc4F)c3s2)c1 | < 50 nM | < 50 nM | < 1000 nM | < 1000 nM
